From doi:10.1101/2024.08.19.608619, “Discovery of potent SARS-CoV-2 nsp3 macrodomain inhibitors uncovers lack of translation to cellular antiviral response” (bioRxiv, 2024) come the findings set out here.

Series [1] is described as follows: Hepatic microsomal stability, HLM. The series is classed as in vitro ADME, human. Conditions: In vitro human liver microsomal stability; for perc_remaining_no_cofactor: no cofactor. For orientation: Liver microsomes are vesicles of endoplasmic reticulum, rich in cytochrome P450 enzymes.
The nature of series [2]: Hepatic microsomal stability, MLM. The series is classed as in vitro ADME.
A further series is described as follows: LogD. The following applies: pH 7.4; In vitro LogD.
Series [3] is described as follows: In vitro kinetic solubility. The following applies: In vitro kinetic solubility, ph 7.4.
Series [4] in a line: Permeability Papp (AB) MDR1/MDCKII. Conditions: In vitro MDR1-MDCKII permeability; for papp_a_to_b_mean: A to B; for perc_recovery_a_to_b_mean: recovery A to B.
Where [5] appears, read: In vitro mouse liver microsomal stability.
Where [6] appears, read: In vitro mouse liver microsomal stability; no cofactor.
The mark [7] stands for this setting: In vitro mouse liver microsomal stability, no cofactor.

Converted amounts (≈) assume the structure as drawn.

Turning to `CC(C)[C@@H](Nc1ncnc2[nH]c(-c3cnn(C)c3C#N)cc12)c1ccc2c(c1)S(=O)(=O)CCC2` [ASAP-0008651], in series [1], the clint stood at 490.0 µL/min/mg, the perc_remaining is 1.0%, the t_half is listed as 3.4 min and the perc_remaining_no_cofactor worked out at 94.0%. Also, in series [2] (setting [5]), the clint is 440.0 µL/min/mg, the perc_remaining is on record as 0.0% and the t_half was determined as 3.8 min. The perc_remaining_no_cofactor in series [2] (setting [6]) is given as 96.0%. This molecule gave a logd in the series “LogD” of 3.6. For the same molecule, the solubility_mean in series [3] worked out at 34 µM (≈ 16.2 µg/mL). In series [4] (mean), this molecule showed a papp_a_to_b_mean of 1.97 ×10⁻⁶ cm/s and a perc_recovery_a_to_b_mean of 81.6%.

For the molecule `CC(C)[C@@H](Nc1ncnc2[nH]c(-c3cnn(C)c3)cc12)c1ccc2c(c1)S(=O)(=O)CCC2` [ASAP-0008678], in series [1], the clint came out at 141.0 µL/min/mg, the perc_remaining is 10.0%, the t_half was 11.9 min and the perc_remaining_no_cofactor is 102.0%. In series [2] (setting [5]), the clint is 155.0 µL/min/mg, the perc_remaining was found to be 7.0% and the t_half is recorded as 10.8 min. The perc_remaining_no_cofactor in series [2] (setting [6]) amounted to 102.0%. Further, in the series “LogD”, the logd is 3.3. In series [3], this molecule had a solubility_mean of 94 µM (≈ 42.4 µg/mL). For the same molecule, in series [4] (mean), the papp_a_to_b_mean was 1.73 ×10⁻⁶ cm/s and the perc_recovery_a_to_b_mean is reported as 85.6%.

Consider `CNC(=O)c1cc2c(N[C@@H](c3ccc4c(c3)S(=O)(=O)CCC4)C(C)C)ncnc2[nH]1` [ASAP-0008685], for which, in series [1], the clint amounted to 77.0 µL/min/mg, the perc_remaining is recorded as 25.0%, the t_half was found to be 21.7 min and the perc_remaining_no_cofactor is on record as 101.0%. In addition, in series [2] (setting [5]), the clint turned out to be 46.0 µL/min/mg, the perc_remaining was found to be 47.0% and the t_half is recorded as 36.5 min. Besides, the perc_remaining_no_cofactor in series [2] (setting [6]) came out at 100.0%. In the series “LogD”, this molecule yielded a logd of 2.4. The solubility_mean in series [3] came out at 369 µM (≈ 158 µg/mL). In series [4] (mean), the papp_a_to_b_mean came to 0.46 ×10⁻⁶ cm/s and the perc_recovery_a_to_b_mean is 104.0%.

With `CNCc1cc(-c2cc3c(N[C@@H](c4ccc5c(c4)S(=O)(=O)CCC5)C(C)C)ncnc3[nH]2)co1` [ASAP-0010745], in series [1], the clint worked out at 57.0 µL/min/mg, the perc_remaining worked out at 40.0%, the t_half is recorded as 29.4 min and the perc_remaining_no_cofactor amounted to 110.0%. In addition, in series [2] (setting [5]), the clint worked out at 52.0 µL/min/mg, the perc_remaining was determined as 41.0% and the t_half is given as 32.2 min. In series [2] (setting [6]), the perc_remaining_no_cofactor is recorded as 108.0%. For the same molecule, the logd in “LogD” is 2.1. The same molecule came in with a solubility_mean in series [3] of 321 µM (≈ 154 µg/mL). In series [4] (mean), the papp_a_to_b_mean turned out to be 1.61 ×10⁻⁶ cm/s and the perc_recovery_a_to_b_mean is 90.5%.

For the molecule `CC(C)[C@H](Nc1ncnc2[nH]c(-c3cnn(C)c3C#N)cc12)c1ccc2c(c1)OCCO2` [ASAP-0010980], in series [1], the clint turned out to be 706.0 µL/min/mg, the perc_remaining is recorded as 1.0%, the t_half came to 2.4 min and the perc_remaining_no_cofactor is recorded as 103.0%. Moreover, in series [2] (setting [5]), the clint came out at 257.0 µL/min/mg, the perc_remaining came out at 2.0% and the t_half amounted to 6.5 min. In series [2] (setting [7]), the perc_remaining_no_cofactor was 113.0%. In the series “LogD”, this molecule displayed a logd of 3.3. Moreover, the solubility_mean in series [3] is 15 µM (≈ 6.44 µg/mL). Moreover, in series [4] (no inhibitor), the papp_a_to_b_mean is 5.56 ×10⁻⁶ cm/s and the perc_recovery_a_to_b_mean amounted to 39.3%.

Consider `CC(C)[C@@H](Nc1ncnc2[nH]c(-c3cnn(C)c3C#N)cc12)c1ccc2c(c1)OCCO2` [ASAP-0011033], for which, in series [1], the clint amounted to 47.0 µL/min/mg, the perc_remaining worked out at 46.0%, the t_half is on record as 35.4 min and the perc_remaining_no_cofactor was found to be 101.0%. For the same molecule, in series [2] (setting [5]), the clint was found to be 129.0 µL/min/mg, the perc_remaining is listed as 13.0% and the t_half came out at 13.0 min. In addition, the perc_remaining_no_cofactor in series [2] (setting [7]) turned out to be 106.0%. This molecule yielded a logd in “LogD” of 3.4. The same molecule had a solubility_mean in series [3] of 20 µM (≈ 8.59 µg/mL). In series [4] (no inhibitor), this molecule had a papp_a_to_b_mean of 5.11 ×10⁻⁶ cm/s and a perc_recovery_a_to_b_mean of 31.2%.

With `CNC(=O)c1c[nH]c2ncnc(N[C@@H](c3ccc4c(c3)S(=O)(=O)CCC4)C(C)C)c12` [ASAP-0011156], in series [1], the clint amounted to 108.0 µL/min/mg, the perc_remaining is 17.0%, the t_half is recorded as 15.4 min and the perc_remaining_no_cofactor is recorded as 94.0%. For the same molecule, in series [2] (setting [5]), the clint amounted to 113.0 µL/min/mg, the perc_remaining is 15.0% and the t_half stood at 14.7 min. For the same molecule, in series [2] (setting [7]), the perc_remaining_no_cofactor came to 108.0%. Besides, the logd in “LogD” was 2.6. This molecule had a solubility_mean in series [3] of 204 µM (≈ 87.2 µg/mL). Besides, in series [4] (no inhibitor), the papp_a_to_b_mean amounted to 0.857 ×10⁻⁶ cm/s and the perc_recovery_a_to_b_mean is recorded as 78.7%.

`CC(C)[C@H](Nc1ncnc2[nH]c(C(=O)N[C@@H]3CCN(C)C3)cc12)c1ccc2c(c1)S(=O)(=O)CCC2` [ASAP-0011196]: in series [1], the clint stood at 3.0 µL/min/mg, the perc_remaining amounted to 98.0%, the t_half worked out at 626.9 min and the perc_remaining_no_cofactor is on record as 100.0%. Moreover, in series [2] (setting [5]), the clint stood at 3.0 µL/min/mg, the perc_remaining was 104.0% and the t_half is reported as 648.8 min. Further, the perc_remaining_no_cofactor in series [2] (setting [7]) was found to be 107.0%. In addition, the logd in the series “LogD” stood at 1.4. In series [3], the solubility_mean came to 366 µM (≈ 182 µg/mL). Besides, in series [4] (no inhibitor), the papp_a_to_b_mean was determined as 0.707 ×10⁻⁶ cm/s and the perc_recovery_a_to_b_mean came out at 103.0%.

As for `CNC(=O)c1cc2c(N[C@@H](c3ccc4c(c3)NC(=O)CO4)C(C)C)ncnc2[nH]1` [ASAP-0011219], in series [1], the clint was 175.0 µL/min/mg, the perc_remaining was determined as 6.0%, the t_half is recorded as 9.6 min and the perc_remaining_no_cofactor is listed as 96.0%. For the same molecule, in series [2] (setting [5]), the clint was found to be 33.0 µL/min/mg, the perc_remaining was 57.0% and the t_half was determined as 51.2 min. Also, the perc_remaining_no_cofactor in series [2] (setting [7]) amounted to 99.0%. This molecule gave a logd in the series “LogD” of 2.9. The solubility_mean in series [3] stood at 380 µM (≈ 150 µg/mL). In series [4] (mean), this molecule yielded a papp_a_to_b_mean of 1.21 ×10⁻⁶ cm/s and a perc_recovery_a_to_b_mean of 105.0%.

`CC(C)[C@H](Nc1ncnc2[nH]c(-c3cnn(CC(N)=O)c3)cc12)c1ccc2c(n1)OCCO2` [ASAP-0012307]: in series [1], the clint was determined as 12.0 µL/min/mg, the perc_remaining was 85.0%, the t_half came out at 134.5 min and the perc_remaining_no_cofactor was determined as 90.0%. Moreover, in series [2] (setting [5]), the clint came to 5.0 µL/min/mg, the perc_remaining turned out to be 99.0% and the t_half is 359.1 min. In series [2] (setting [7]), the perc_remaining_no_cofactor was determined as 110.0%. Further, the logd in “LogD” amounted to 2.3. For the same molecule, the solubility_mean in series [3] amounted to 377 µM (≈ 169 µg/mL). For the same molecule, in series [4] (no inhibitor), the papp_a_to_b_mean amounted to 1.27 ×10⁻⁶ cm/s and the perc_recovery_a_to_b_mean turned out to be 100.0%.
